The source of these data is patent publication US7667040B2, “Azacyclic ethynyl derivatives” (Neurosearch A/S, priority 2002, dated 2010).

Where a name gives a salt, the structure may show the parent alone. Read-outs that look alike come from different tables or passages of the source.

In experiment [1] the target is T1, α7-subtype of nicotinic receptors (Rattus norvegicus, UniProt Q05941).
T1 construct: Cerebral cortices from male Wistar rats (150-250 g) are homogenised; from tissue; host or cells: rat cerebral cortex membrane homogenate
T1 sequence (Q05941 23-502): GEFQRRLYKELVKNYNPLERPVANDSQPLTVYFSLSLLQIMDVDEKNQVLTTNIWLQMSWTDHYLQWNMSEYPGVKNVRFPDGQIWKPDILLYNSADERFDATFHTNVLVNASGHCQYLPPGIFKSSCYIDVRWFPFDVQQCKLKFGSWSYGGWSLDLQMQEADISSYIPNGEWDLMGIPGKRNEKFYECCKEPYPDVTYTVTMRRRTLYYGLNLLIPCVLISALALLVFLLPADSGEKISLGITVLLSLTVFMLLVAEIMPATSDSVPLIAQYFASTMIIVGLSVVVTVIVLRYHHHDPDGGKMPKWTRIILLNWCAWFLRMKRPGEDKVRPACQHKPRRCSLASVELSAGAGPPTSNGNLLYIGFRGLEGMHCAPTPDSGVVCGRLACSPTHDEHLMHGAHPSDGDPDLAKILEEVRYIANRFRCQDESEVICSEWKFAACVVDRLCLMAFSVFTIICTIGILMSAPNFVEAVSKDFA
Description: In vitro inhibition of 3H-α-bungarotoxine binding in rat brain.

In another experiment the target is T2, serotonin transporter (Rattus norvegicus, UniProt P31652).
T2 construct: Cerebral cortices from male Wistar rats (150-200 g) are homogenized; from tissue; host or cells: rat cerebral cortex synaptosomes (P2 pellet)
T2 sequence (P31652 whole entry): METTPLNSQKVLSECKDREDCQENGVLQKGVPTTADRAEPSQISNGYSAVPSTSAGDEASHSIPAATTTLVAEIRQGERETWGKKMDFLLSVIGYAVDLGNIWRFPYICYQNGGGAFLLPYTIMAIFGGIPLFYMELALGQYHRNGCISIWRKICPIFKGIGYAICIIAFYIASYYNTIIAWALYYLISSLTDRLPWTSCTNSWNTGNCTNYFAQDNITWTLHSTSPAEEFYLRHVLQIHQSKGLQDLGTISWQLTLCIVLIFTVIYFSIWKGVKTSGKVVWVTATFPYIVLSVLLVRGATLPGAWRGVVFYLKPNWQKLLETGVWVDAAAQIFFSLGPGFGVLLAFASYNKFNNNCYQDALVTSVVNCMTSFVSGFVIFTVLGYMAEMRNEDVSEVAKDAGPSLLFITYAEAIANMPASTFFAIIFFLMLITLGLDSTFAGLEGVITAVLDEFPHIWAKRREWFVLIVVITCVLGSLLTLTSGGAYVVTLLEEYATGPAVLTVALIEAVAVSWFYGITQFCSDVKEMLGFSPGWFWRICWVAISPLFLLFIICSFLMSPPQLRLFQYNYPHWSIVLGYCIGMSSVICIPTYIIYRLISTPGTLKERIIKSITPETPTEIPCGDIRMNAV
Description: In vitro inhibition of 3H-5-hydroxytryptamine uptake in cortical synaptosomes. Type of experiment: biochemical. As to conditions: 1 nM 3H-5-HT, 30 minutes at 37° C. Here is the method:
In vitro Inhibition of ^3H-5-Hydroxytryptamine Uptake in Cortical Synaptosomes
Serotonin transporters/uptake sites on nerve terminals presumably function to terminate neuronal signaling by removing serotonin from the synaptic cleft. The activity of the serotonin transporter integral protein can be measured in vitro by synaptosomal uptake of ^3H-5-hydroxytryptamine (5-HT, serotonin).
Preparations are performed at 0-4° C. Cerebral cortices from male Wistar rats (150-200 g) are homogenized for 5-10 seconds in 100 volumes of ice-cold 0.32 M sucrose containing 1 mM pargyline, using a motor driven teflon pestle in a glass homogenizing vessel. Monoamine oxidase activity is inhibited in the presence of pargyline.
The homogenate is subjected to centrifugation at 1000×g for 10 minutes. The resulting supernatant is then centrifuged at 27,000×g for 50 minutes and the supernatant is discarded. The pellet (P2) is re-suspended in oxygenated (equilibrated with an atmosphere of 96% O2: 4% CO2 for at least 30 minutes) Krebs-Ringer incubation buffer (1000 ml per g of original tissue) at pH 7.2 containing 122 mM NaCl, 0.16 mM EDTA, 4.8 mM KCl, 12.7 mM Na2HPO4, 3.0 mM NaH2PO4, 1.2 mM MgSO4, 1 mM CaCl2, 10 mM glucose and 1 mM ascorbic acid.
Aliquots of 4.0 ml tissue suspension are added to 100 μl, of test solution and 100 μl of ^3H-5-HT (1 nM, final concentration), mixed and incubated for 30 minutes at 37° C. Non-specific uptake is determined using Citalopram (1 μM, final concentration, available from Lundbeck, Denmark).
After incubation, the samples are poured directly onto Whatman GF/C glass fibre filters under suction. The filters are washed three times with 5 ml of ice-cold 0.9% (w/v) NaCl solution.
The amount of radioactivity on the filters is determined by conventional liquid scintillation counting. Specific uptake is calculated as the difference between total uptake and non-specific uptake.
25-75% inhibition of specific binding must be obtained, before calculation of an IC50.
The test value is given as IC50 (the concentration (μM) of the test substance which inhibits the specific binding of ^3H-5-HT by 50%).

The mark [2] stands for this setting: rat cerebral cortex homogenate, 2 nM 3H-α-bungarotoxine, 2 hours at 37° C., read-out: Inhibition of 3H-α-Bungarotoxine Binding IC50.

Take `C(#Cc1ccccc1)C1=CN2CCC1CC2` [Compound A1, (±)-3-Phenyletynyl-quinuclidin-2-ene]: the IC50 in experiment [1] (setting [2]) was 180 nM; on serotonin transporter, 420 nM.
As for `CN1C2C=C(C#Cc3ccccc3)CC1CC2` (racemic) [Compound 1, (±)-8-Methyl-3-phenyletynyl-8-azabicyclo[3.2.1]oct-2-ene fumaric acid salt], the IC50 in experiment [1] worked out at 320 nM; at serotonin transporter it was 110 nM.
Turning to `C[N+]1(C)C2C=C(C#Cc3ccccc3)CC1CC2` (racemic) [Compound B1, (±)-8,8-Dimethyl-3-phenyletynyl-8-azabicyclo[3.2.1]oct-2-ene iodide salt], the IC50 in experiment [1] (setting [2]) was found to be 2 nM.
In the case of `C(#Cc1ccccc1)C1=CC2CCC(C1)N2` (racemic) [Compound C1, (±)-8-H-3-Phenyletynyl-8-azabicyclo[3.2.1]oct-2-ene fumaric acid salt], the IC50 at serotonin transporter was found to be 99 nM.
As for `C[N+]12C=C(C#Cc3ccccc3)C(CC1)CC2` (racemic) [Compound B2, (±)-1-Methyl-3-phenyletynyl-quinuclidin-2-ene iodide salt], the IC50 stood at 600 nM in experiment [1] (setting [2]) and 100 nM against serotonin transporter.

A word on the IC50: it is the concentration that inhibits the measured activity by half.
